Patent US20020182736A1, “Methods to measure lipid antioxidant activity” (TRUSTEES OF TUFTS COLLEGE, priority 2001, published 2002)
Values joined by “and” are separate entries in the source; they are usually repeats but may differ in a detail not shown here. Identical values can stand only once.

Tests used:
[1] = tested on: aqueous plasma compartment oxidation; assay: Aqueous plasma compartment oxidation, DCFH to DCF fluorescence; set-up: species or system human
Experimental: The final plasma dilution was 1:5 (v/v).
DCFH was prepared from DCFH-DA by basic hydrolysis. Briefly 500 μl of DCFH-DA stock solution (1 mM) was mixed with 2 ml of NaOH (0.01 N at 4° C.) for 20 minutes while protected from the light. The mixture was then neutralized with 2 ml of HCl (0.01 N), diluted with PBS to a final concentration of 10 μM and stored in ice for no longer than 8 hrs (working solution); an aliquot of 100 μl was added to 200 μl of plasma and then diluted to a final volume of 1 ml with PBS. […] The excitation wavelength (λex) was set at […] (slit 5 nm) and emission (λem) at 520 nm (slit 5 nm).
Values are mean±SD of five independent experiments. […] Samples were incubated at 37° C. in the dark and at fixed times the DCF content measured by fluorescence (λex=502 nm, λem=520 nm).

[2] = 37° C; cited from earlier work
[3] = tested on: lipid plasma compartment oxidation; assay: Lipid plasma compartment oxidation, BODIPY 581/591 green fluorescence; conditions: 20 mM AAPH
Experimental: Plasma oxidation was measured fluorometrically using two different fluorescent probes: DCFH and BODIPY. DCFH-DA and BODIPY stock solutions were prepared in EtOH and dimethylsulfoxide, respectively, stored under nitrogen at −20° C. and used within two months. The final plasma dilution was 1:5 (v/v).
In the experiments using β-carotene, to avoid the filtering effect due to the carotenoid, the oxidation product of BODIPY was also detected at λex=520 and at λem-540 nm. The fluorescence measurements were carried out using a Perkin Elmer spectrofluorometer (model 650-10s) with 1 cm path length fluorescence cuvettes.
Briefly, β-carotene (dissolved in stabilized THF, 10 mg/ml) or α-tocopherol (4.3 mg/ml in EtOH) were added to plasma to reach a final concentration of 50 μM; the samples were then vortexed for 30 sec and incubated at 37±1° C. for 1 to 6 hr under nitrogen. […] Controls were prepared in the same way using solvent only.
The effect of adding the membrane soluble antioxidants, α-tocopherol (in EtOH) and β-carotene (in THF), pre-incubated with plasma, was studied. […] Values are mean±SD of five independent experiments. Statistical analysis: one-way ANOVA with Tukey's post test; *p<0.05, **p<0.01.
To monitor the aqueous phase oxidizability, AAPH was used as a hydrophilic radical generator and coupled to DCFH was used as the indicator.

In the case of `CC(C)(N=NC(C)(C)C(=N)N)C(=N)N.Cl.Cl` [AAPH, 2,2′-azobis (2-amidinopropane) dihydrochloride], the “start of propagation phase of DCFH oxidation in plasma” value ([1]; 10 mM AAPH) is listed as 180 min, the “start of propagation phase / lag phase of DCFH oxidation in plasma” value ([1]; 20 mM AAPH, dihydrochloride) is listed as 90 min and 120 min and the “rate of free radical generation Ri” value [2] is listed as 1.36×10^−6 [AAPH] mol/liter/sec. For the same molecule, the “delay of BODIPY oxidation in plasma” value [3] was 180 min.
